According to patent US20130195926A1, “MODULATION OF NITRIC OXIDE SIGNALING TO NORMALIZE TUMOR VASCULATURE” (The General Hospital Corporation, priority 2007, published 2013):

Assays:
[1] = tested on: U87 tumors; test: Fractionated radiation therapy of U87 tumors grown in the hind leg; assay type: in vivo, mice; details: 3 daily fractions of 8 Gy, compared to irradiated U87MG tumor bearing animals
Method: When tumors grown in the hindleg reached about 100 mm^3, animals were randomly assigned to radiation or control group (day 0). In the radiation groups, tumors were locally irradiated with three daily fractions, 8 Gy each, using a ^137Cs gamma irradiator (Hranitzky, E. B., et al. 1973 Radiology 107, 641-644) at a dose rate of approximately 5 Gy/min. The details of irradiation are described elsewhere (Kozin, S. V., et al. 2001 Cancer Research 61, 39-44). Tumor size was measured with a caliper at least every other day. The time taken for tumor to increase in volume 2×, 3×, 4×, 5×, 6×, and 7× of the initial volume (V0) was determined. Tumor growth delay was calculated as the difference of this parameter between irradiated tumors and nonradiated control tumors of the same genotype. Mice were euthanized when the tumors reached 12 mm in diameter. Survival time of individual animals (spontaneous death or by euthanasia at maximum tumor size) was determined after the start of radiation/control treatment.
The effect of radiation treatment on U87MG, U87-shRNA58 and U87-shRNA150 tumors was determined. Tumors were grown subcutaneously in the hind leg of Rag-1^−/− mice. When tumors reached ˜100 mm^3, they were randomly assigned to control and radiation treatment groups. […] Tumor growth and overall animal survival were monitored. […]

[2] = tested on: HIF-1α; test: Western blot of HIF-1α expression in U87 tumors; assay type: in vivo; details: for HIF-1α protein levels, % of that in U87MG tumors: Western blot; for hypoxia inducible factor-1α (HIF-1α) protein levels: compared to U87MG tumors
Method: FIGS. 9A-E show the effect of nNOS silencing in U87 gliomas on tumor tissue oxygenation. Tissues shown in (A) were harvested and stained after injection of pimonidazole (60 mg/kg), followed by biotinylated lectin. Confocal laser scanning microscopy images (top row) of Hypoxyprobe™-1 adducts stained hypoxic cells (red), lectin-bound perfused blood vessels (green) and nuclei (blue) in U87MG, U87-shRNA58, and […] are 630 μm across. Binarized images (bottom row) of above confocal images. Bar indicates 100 μm. (B-C) Quantification of vessel segments (B) and vessel perimeter (C). (D) Quantification of hypoxic area. n=7, 3, 4 respectively. *p<0.05, as compared to U87MG tumors. (E) Western blot analysis of HIF-1α expression in U87MG and nNOS-snRNA-transfected U87 tumors. HIF-1α protein levels in U87-shRNA58 and U87-shRNA150 tumors were 46% and 59% of that in U87MG tumors, respectively. FIGS. 10A-C show the effect of nNOS silencing in U87 gliomas on fractionated radiation therapy. (A) Tumor growth normalized to day 0 tumor volume. (B) Tumor growth delay evaluated at the levels of 2, 4, and 6 times Vo. *P<0.05 as compared to U87MG. (C) Kaplan-Meier survival plot. U87 control (n=9), sh58 control (n=7), sh150 control (n=9), U87 radiation (n=8), sh58 radiation (n=6), sh150 radiation (n=10). FIGS. 11A-D show in vitro radiosensitivity and post-radiation tumor vasculature in U87 tumors. (A) Intrinsic tumor cell radiosensitivity was evaluated with the clonogenic assay. Following irradiation, the cells were incubated 9-13 d for colony formation depending on the dose administered. The surviving fractions were corrected for initial and final multiplicities determined 4-6 h after plating and at the time of irradiation. Data are expressed as mean±s.d. (B-D) When U87MG and nNOS-silenced U87 tumors grown in the hindleg in Rag-1^−/− mice reached ˜100 mm^3 they received 8 Gy/d for 3 d. […] (C-D) Quantification of the number of vessel segments (C) and vessel perimeter (D). […]
Equal amounts of 60 micrograms of protein per sample were separated on 7.5% SDS polyacrylamide gels, transferred onto polyvinylidene fluoride membrane (Millipore), incubated with primary antibodies followed by secondary antibodies (the same antibodies used in immunohistochemistry studies. See Immunohistochemistry methods below), and detected using enhanced chemiluminescence (GE Healthcare) by exposure on autoradiography films (Kodak) (Xu, L., et al. 2005 Cancer Res. 65, 5711-5719; Canneliet, P., et al. 1998 Nature 394, 485-490; Xu, L., et al. 2002 Journal of Biological Chemistry 277, 11368-11374 (2002); and Xu, L., et al. 2004 Clinical Cancer Research 10, 701-707).
The extent of hypoxia was determined in U87MG, U87-shRNA58, and U87-shRNA150 tumors utilizing a redox marker pimonidazole (Hypoxyprobe™-1 Kit, Millipore). […]

## shRNA150: short-hairpin RNA for nNOS, GGTCTATCCAATGTCCACA (sense), TGTGGACATTGGATAGACCTT (antisense), in pSilencer 3.1 H-1-hygro
[1]
  animal survival after radiation treatment: Significant extension
[2]
  HIF-1α protein levels, % of that in U87MG tumors: 59%
  hypoxia inducible factor-1α (HIF-1α) protein levels: reduction

## shRNA58: short-hairpin RNA for nNOS, CAAAGAGATCGACACCATC (sense), GATGGTGTCGATCTCTTTGTT (antisense), in pSilencer 3.1 H-1-hygro, stably transfected into U87MG
[1]
  animal survival after radiation treatment: Significant extension
[2]
  HIF-1α protein levels, % of that in U87MG tumors: 46%
  hypoxia inducible factor-1α (HIF-1α) protein levels: reduction
